Measurements: ChEMBL document CHEMBL4251711, “Bioactive Indolocarbazoles from the Marine-Derived Streptomyces sp. DT-A61” (J Nat Prod, 2018)

How the values were obtained:
[1] = biological target: Protein kinase C alpha type (Homo sapiens, UniProt P17252); assay: Inhibition of PKCalpha (unknown origin) by HTRF assay
[2] = biological target: Rho-associated protein kinase 2 (Homo sapiens, UniProt O75116); assay: Inhibition of ROCK2 (unknown origin) by HTRF assay
[3] = biological target: T1, Mitogen-activated protein kinase kinase kinase 5 (Homo sapiens, UniProt Q99683); assay: Inhibition of ASK1 (unknown origin) by HTRF assay
T1 sequence (Q99683 whole entry): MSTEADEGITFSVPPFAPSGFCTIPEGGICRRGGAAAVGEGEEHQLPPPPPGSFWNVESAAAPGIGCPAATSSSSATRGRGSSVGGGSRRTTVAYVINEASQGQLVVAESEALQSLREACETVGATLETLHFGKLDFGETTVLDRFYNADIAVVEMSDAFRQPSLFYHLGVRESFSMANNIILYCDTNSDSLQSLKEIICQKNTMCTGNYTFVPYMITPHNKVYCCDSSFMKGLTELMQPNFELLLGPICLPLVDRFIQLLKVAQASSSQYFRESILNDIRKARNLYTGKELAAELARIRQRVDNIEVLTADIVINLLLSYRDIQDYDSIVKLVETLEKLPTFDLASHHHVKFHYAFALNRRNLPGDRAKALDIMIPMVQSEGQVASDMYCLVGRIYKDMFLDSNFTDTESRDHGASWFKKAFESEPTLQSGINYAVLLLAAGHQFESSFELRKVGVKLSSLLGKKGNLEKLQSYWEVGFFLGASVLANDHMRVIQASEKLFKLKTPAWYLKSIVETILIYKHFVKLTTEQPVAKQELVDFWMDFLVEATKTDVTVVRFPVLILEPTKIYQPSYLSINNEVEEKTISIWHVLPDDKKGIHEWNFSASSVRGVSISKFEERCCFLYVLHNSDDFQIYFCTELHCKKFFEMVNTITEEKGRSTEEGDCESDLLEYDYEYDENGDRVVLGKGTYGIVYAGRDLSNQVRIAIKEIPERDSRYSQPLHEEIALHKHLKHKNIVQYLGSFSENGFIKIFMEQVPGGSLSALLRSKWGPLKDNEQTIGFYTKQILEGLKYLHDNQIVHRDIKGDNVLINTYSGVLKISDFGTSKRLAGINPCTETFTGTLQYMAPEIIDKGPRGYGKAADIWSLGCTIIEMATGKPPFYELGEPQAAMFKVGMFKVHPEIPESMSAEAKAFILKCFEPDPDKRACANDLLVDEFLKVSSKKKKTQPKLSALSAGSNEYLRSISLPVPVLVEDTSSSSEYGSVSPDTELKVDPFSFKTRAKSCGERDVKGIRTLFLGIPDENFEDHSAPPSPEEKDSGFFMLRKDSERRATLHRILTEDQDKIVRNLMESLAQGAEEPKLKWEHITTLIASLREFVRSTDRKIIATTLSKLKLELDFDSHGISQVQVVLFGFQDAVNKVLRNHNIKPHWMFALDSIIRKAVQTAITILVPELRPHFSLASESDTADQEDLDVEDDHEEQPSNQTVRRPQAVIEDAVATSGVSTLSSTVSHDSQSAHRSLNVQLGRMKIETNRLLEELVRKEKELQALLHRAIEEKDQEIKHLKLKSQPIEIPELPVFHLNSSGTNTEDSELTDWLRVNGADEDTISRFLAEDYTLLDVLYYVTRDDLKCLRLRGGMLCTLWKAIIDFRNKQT

[4] = test system: PC-3; assay: Cytotoxicity against human PC3 cells after 72 hrs by SRB assay; type: functional, cell-based; conditions: PC-3, 72 h

Sequence of Rho-associated protein kinase 2 (O75116 whole entry): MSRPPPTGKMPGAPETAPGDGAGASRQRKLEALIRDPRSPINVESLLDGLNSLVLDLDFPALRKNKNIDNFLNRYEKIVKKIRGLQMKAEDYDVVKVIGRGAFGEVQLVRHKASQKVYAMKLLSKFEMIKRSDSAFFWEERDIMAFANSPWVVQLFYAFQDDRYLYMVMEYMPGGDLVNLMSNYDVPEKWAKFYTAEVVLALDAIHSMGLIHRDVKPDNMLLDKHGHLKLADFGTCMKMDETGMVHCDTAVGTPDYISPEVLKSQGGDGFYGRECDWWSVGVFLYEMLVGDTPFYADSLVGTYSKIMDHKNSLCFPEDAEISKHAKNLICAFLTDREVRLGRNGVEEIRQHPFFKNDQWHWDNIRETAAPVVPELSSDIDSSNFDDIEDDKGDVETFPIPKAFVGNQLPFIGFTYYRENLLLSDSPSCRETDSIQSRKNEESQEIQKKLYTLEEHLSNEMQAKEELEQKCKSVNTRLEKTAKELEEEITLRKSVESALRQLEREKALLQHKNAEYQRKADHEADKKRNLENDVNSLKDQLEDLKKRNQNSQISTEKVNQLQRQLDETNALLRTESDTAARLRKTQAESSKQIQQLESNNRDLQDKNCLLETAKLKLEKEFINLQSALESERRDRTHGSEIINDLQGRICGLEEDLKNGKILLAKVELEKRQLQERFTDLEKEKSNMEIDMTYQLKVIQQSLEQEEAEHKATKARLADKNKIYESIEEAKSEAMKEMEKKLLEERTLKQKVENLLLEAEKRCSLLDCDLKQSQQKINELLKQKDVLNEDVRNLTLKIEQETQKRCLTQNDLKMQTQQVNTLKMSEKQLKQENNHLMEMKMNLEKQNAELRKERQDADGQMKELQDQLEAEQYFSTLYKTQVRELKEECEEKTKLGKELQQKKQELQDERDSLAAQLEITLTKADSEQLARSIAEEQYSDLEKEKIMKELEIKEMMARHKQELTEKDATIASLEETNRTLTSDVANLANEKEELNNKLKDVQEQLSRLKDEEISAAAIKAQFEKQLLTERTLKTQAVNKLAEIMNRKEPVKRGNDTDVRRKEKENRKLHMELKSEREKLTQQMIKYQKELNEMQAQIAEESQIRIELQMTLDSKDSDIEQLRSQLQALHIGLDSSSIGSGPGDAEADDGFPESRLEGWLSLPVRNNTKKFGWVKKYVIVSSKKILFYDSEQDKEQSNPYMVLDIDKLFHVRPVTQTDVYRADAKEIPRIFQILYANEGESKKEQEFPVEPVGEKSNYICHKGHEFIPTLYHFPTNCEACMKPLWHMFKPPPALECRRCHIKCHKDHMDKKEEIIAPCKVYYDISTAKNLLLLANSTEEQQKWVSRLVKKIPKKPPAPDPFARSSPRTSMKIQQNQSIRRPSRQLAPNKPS

IC50 [1] | IC50 [2] | IC50 [3] | SMILES | IC50 [4]
1400 nM | 340 nM | > 50000 nM | C[C@H]1O[C@@H]2C[C@](O)([C@H]1O)n1c3ccccc3c3c4c(c5c6cc(O)ccc6n2c5c31)C(=O)NC4 | 5600 nM
980 nM | 340 nM | 740 nM | O=C1NCc2c1c1c3ccccc3[nH]c1c1[nH]c3ccc(O)cc3c21 | 8000 nM
3200 nM | 5.7 nM | 3000 nM | O=C1NCc2c1c1c3cc(O)ccc3[nH]c1c1[nH]c3ccccc3c21 | 21000 nM
460 nM | 40 nM | 6400 nM | CC(=O)N[C@@H]1C[C@H](n2c3ccc(O)cc3c3c4c(c5c6ccccc6[nH]c5c32)CNC4=O)O[C@@H](C)[C@@H]1O | 3600 nM
2100 nM | 970 nM | 4100 nM | C[C@@H]1O[C@@H]2C[C@](O)([C@H]1O)n1c3ccccc3c3c4c(c5c6cc(O)ccc6n2c5c31)C(=O)NC4 | 39000 nM
1400 nM | 910 nM | > 50000 nM | COC1NC(=O)c2c1c1c3ccccc3[nH]c1c1[nH]c3ccc(O)cc3c21 (stereo not given) | 18000 nM
97 nM | 1400 nM | > 50000 nM | CC(=O)N[C@@H]1C[C@H](n2c3ccccc3c3c4c(c5c6cc(O)ccc6[nH]c5c32)CNC4=O)O[C@@H](C)[C@@H]1O | 
79 nM | 150 nM | 1100 nM | C[C@@H]1O[C@@H](n2c3ccc(O)cc3c3c4c(c5c6ccccc6[nH]c5c32)CNC4=O)C[C@@H](N)[C@H]1O | 3100 nM
92 nM | 260 nM | 770 nM | CC(=O)N[C@H]1C[C@H]2O[C@@](C)([C@@H]1O)n1c3ccccc3c3c4c(c5c6ccccc6n2c5c31)C(=O)NC4 | 160 nM
